Experimental data taken from patent US6958352B2, “Compounds for inhibiting insulin secretion and methods related thereto” (SmithKline Beecham Corporation, priority 2002, dated 2005).
Like-named read-outs stand apart in the source and are kept apart here.

How the values were obtained:
[1] = tested on: Pancreatic islets of Langerhans; assay: Glucose-stimulated insulin secretion (GSIS) by isolated pancreatic islets, insulin ELISA; assay type: cell-based, rat; conditions: concentration of 1 μM
Protocol: Pancreatic islets of Langerhans were isolated from adult male Sprague-Dawley rats using a standard collagenase infusion and digestion procedure as described in Example 16. Islets were cultured at 37° C. for 1-2 days in CMRL-1066 medium supplemented with 5.5 mM glucose, 10% fetal bovine serum, 100 U/ml penicillin and 100 μg/ml streptomycin, in a humidified atmosphere containing 5% CO2. Islets were manually picked and washed in Krebs Ringer Bicarbonate buffer (KRB: 134 mM NaCl, 4.7 mM KCl, 1.2 mM KH2PO4, 1.2 mM MgSO4, 1 mM CaCl2, 10 mM NaHCO3, pH 7.4) in preparation for measurement of glucose-stimulated insulin secretion (GSIS). […] Cell-conditioned media samples were then collected by centrifugation and their insulin content was determined using enzyme-linked immunosorbent assay (ELISA) kits (CrystalChem or ALPCO rat insulin ELISA) according to the kit supplier's instructions. Following treatment with a preferred compound, the concentration of insulin detected in the islet-conditioned medium was at least 1.5 times the insulin concentration detected in the medium conditioned by islets that were exposed to 8 mM glucose.
At a concentration of 1 μM, CGP37157 stimulated islet GSIS by 222 (±48) % relative to GSIS detected with 8 mM glucose. […]

[2] = tested on: INS-1 rat insulinoma cells; assay: Insulin secretion by INS-1 cells, insulin radioimmunoassay; assay type: cell-based; conditions: 8 mM glucose vs basal; FIG. 1
Protocol: INS-1 rat insulinoma cells were provided by Prof. Claes Wollheim, University Medical Centre, Geneva, Switzerland, and cultured at 37° C. in a humidified 5% CO2 environment in RPMI cell culture media (Gibco BRL, Gaithersburg, Md.) supplemented with 10% fetal bovine serum (Irvine Scientific, Irvine, Calif.), 2 mM L-glutamine, 100 U/ml penicillin, 100 μg/ml streptomycin, 10 mM HEPES, 1 mM sodium pyruvate and 50 μM β-mercaptoethanol (all reagents Sigma, St. Louis, Mo., unless otherwise noted).
INS-1 cells were seeded into 24-well plates containing RPMI media supplemented as described at 0.5×10^6 cells/well and cultured at 37° C., 5% CO2 for 2 days. Cells at or near confluence (0.7×10^6 cells/well) were rinsed with glucose-free KRH buffer (134 mM NaCl, 4.7 mM KCl, 1.2 mM KH2PO4, 1.2 mM MgSO4, 1.0 mM CaCl2, 10 mM HEPES-pH 7.4, 25 mM NaHCO3, 0.5% BSA), then incubated in the same buffer for 1 hr at 37° C. in a humidified 5% CO2/95% air atmosphere. […] Insulin concentrations in the supernatants were measured and normalized to cell number using an insulin-specific radioimmunoassay kit (ICN Biochemicals, Irvine, Calif.) according to the manufacturer's instructions.

[3] = tested on: rat pancreatic islet cells; assay: Insulin secretion by rat pancreatic islet cells (FIG. 2); assay type: cell-based; conditions: basal (5 mM) or supraphysiological (8 mM) glucose
[4] = molecular target: T1, mitochondrial calcium/sodium antiporter (Rattus norvegicus, UniProt Q6AXS0); assay: Inhibition of mitochondrial calcium/sodium antiporter activity (NaCl-induced mitochondrial calcium efflux, calcium green 5N fluorescence); assay type: cell-based; conditions: digitonin-permeabilized INS-1 cells, 20 mM NaCl
T1 sequence (Q6AXS0 1-585): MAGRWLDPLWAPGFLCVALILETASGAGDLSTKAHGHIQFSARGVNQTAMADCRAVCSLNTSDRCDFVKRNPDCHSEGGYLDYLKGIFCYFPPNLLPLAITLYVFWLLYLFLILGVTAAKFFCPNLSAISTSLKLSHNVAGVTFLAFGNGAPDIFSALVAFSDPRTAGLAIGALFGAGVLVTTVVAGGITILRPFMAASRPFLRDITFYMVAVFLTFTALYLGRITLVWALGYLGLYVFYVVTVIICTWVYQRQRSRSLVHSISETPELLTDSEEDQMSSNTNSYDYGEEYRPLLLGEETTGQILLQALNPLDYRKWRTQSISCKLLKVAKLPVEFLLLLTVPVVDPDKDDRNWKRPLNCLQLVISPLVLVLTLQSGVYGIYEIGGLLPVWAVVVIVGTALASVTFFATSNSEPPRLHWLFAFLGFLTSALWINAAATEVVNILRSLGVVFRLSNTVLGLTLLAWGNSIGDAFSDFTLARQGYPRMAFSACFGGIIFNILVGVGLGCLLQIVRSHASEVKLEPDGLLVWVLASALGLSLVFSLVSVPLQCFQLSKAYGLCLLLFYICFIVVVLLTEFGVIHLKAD
Protocol: INS-1 rat insulinoma cells (see Example 16) were harvested by trypsinization, washed and resuspended at 10×10^6 cells/ml in assay buffer (250 mM sucrose, 10 mM HEPES, 2.5 mM K2HPO4, 5 mM succinate, pH 7.4) containing 0.007% digitonin, 60 μM CaCl2 and 0.05 μM calcium green 5N (Molecular Probes, Inc., Eugene, Oreg.). After a five-minute calcium loading incubation, ruthenium red (1 μM; Sigma, St. Louis, Mo.) was added to block further calcium uptake by mitochondria. Cell suspensions were dispensed into 96-well plates (100 μl per well, 1×10^6 cells per well) and candidate agents (i.e., candidate mitochondrial calcium/sodium antiporter inhibitors) were added to some sets of triplicate wells at concentrations of 1, 10 or 100 μM, while other sets of wells provided appropriate control conditions (e.g., buffer and vehicle controls). Baseline fluorescence measurements were made using a multiwell plate fluorimeter (F-MAX™, Molecular Devices Corp., Sunnyvale, Calif.; or PolarStar™, BMG Labtechnologies, Inc., Durham, N.C.) according to the manufacturer's instructions. Calcium efflux from mitochondria was then induced by adding NaCl to all wells to achieve a final concentration of 20 mM, and the rate of change in fluorescence in each well was monitored […] for two minutes and quantified using software included with the plate reader.

C57BLKs-db/db mice = assay: Glucose tolerance in mutant db/db mice after oral administration; assay type: in vivo, mouse; conditions: 100 mg/kg orally one hour before 1 gm glucose/kg i.p.; relative to vehicle control; p<0.05
From the text: This Example illustrates the effects of a representative compound on glucose tolerance in an established animal model of type II diabetes mellitus, the db/db mutant mouse. As a brief background, the recessive db mutation has been localized to murine chromosome 4, and homozygous recessive (db/db) individuals are characterized by, inter alia, obesity, hyperphagia, transient increases in plasma insulin concentrations, hyperglycemia, abnormal immune and renal functions, diabetic neuropathy and myocardial disease (see, e.g., Hummel et al., 1966 Science 153:1127; Herberg et al., 1977 Metabolism 26:59; Leiter et al., 1981 Metabolism 30:554; Guenet et al., 1982 Mouse News Letter 67:30; Guenet et al., 1984 Mouse News Letter 70:95; Bray et al., 1971 Physiol. Rev. 51:598; Bailey et al., 1989 J. Endocrinol. 123:19-24; Bray et al., 1979 Physiol. Rev. 59:719; Sima et al., 1979 Lab. Invest. 40:627; Sima et al., 1978 Acta Nettropathol. […]
16o (dissolved in vehicle: 10% (v/v) EtOH, 10% (v/v) polyethylene glycol-400, 30% (v/v) propylene glycol, 50% (v/v) H2O) was administered orally at a dosage of 100 mg/kg body weight to eight-week old mutant C57BLKs-db/db mice (Harlan Bioproducts for Science, Inc., Indianapolis, Ind.). […] Glucose concentrations in each blood sample were determined using OneTouch® glucose test strips (LifeScan, Inc., Milpitas, Calif.) according to the manufacturer's instructions. […]

[5] = Table 3, more preferred compounds, read-out: IC50 ≦ 1 μM
[6] = Table 2, preferred compounds, read-out: IC50 ≦ 10 μM

**Q.** `O=C1CSC(c2ccccc2Cl)c2cc(Cl)ccc2N1` (centres unmarked) [CGP37157, 7-Chloro-5-(2-chlorophenyl)-1,5-dihydro-4,1-benzothiazepin-2(3H)-one] was tested. Which “stimulated islet GSIS relative to GSIS detected with 8 mM glucose” value [1] did it give?
**A.** 222 (±48) %

**Q.** What about the “glucose stimulated insulin secretion by INS-1 cells” value [2] of the same compound?
**A.** enhanced glucose stimulated insulin secretion

**Q.** And the “glucose stimulated insulin secretion on rat pancreatic islet cells” value [3]?
**A.** enhanced glucose stimulated insulin secretion

**Q.** With `COc1cc(C(=O)NCCSC(c2cc(Cl)ccc2N)C2CCCCC2)cc(OC)c1OC` (centres unmarked) [Compound 16o] as the compound, how does the IC50 [4, 5] read?
**A.** ≤ 1000 nM

**Q.** And the “peak blood glucose levels after the glucose bolus” value (C57BLKs-db/db mice)?
**A.** lower peak blood glucose levels

**Q.** And the “return of blood glucose to baseline” value (C57BLKs-db/db mice)?
**A.** returned to a lower baseline more rapidly

**Q.** For `CCSC(c1cc(Cl)ccc1N)c1ccccc1Cl` (centres unmarked) [Compound 15c], which IC50 [4, 6] is on record?
**A.** ≤ 10000 nM

**Q.** What about the IC50 [4, 5] of the same compound?
**A.** ≤ 1000 nM

**Q.** For `COc1cc(C(=O)NCCSC(CC(C)C)c2cc(Cl)ccc2N)cc(OC)c1OC` (centres unmarked) [Compound 16ac], which IC50 [4, 5] is on record?
**A.** ≤ 1000 nM

**Q.** Which IC50 [4, 6] does the source give for `COC(=O)CSCC(c1cc(Br)ccc1N)c1ccccc1F` (centres unmarked) [Compound 20c] here?
**A.** ≤ 10000 nM

**Q.** And the IC50 [4, 5]?
**A.** ≤ 1000 nM
